Test results reported in paper PMC4663552, “Identification of Antiviral Agents Targeting Hepatitis B Virus Promoter from Extracts of Indonesian Marine Organisms by a Novel Cell-Based Screening Assay” (Marine Drugs, 2015).
Where two headings read alike, the source gives them in different places.

Key:
HBV = assay: Anti HBV activity in HepG2.2.15.7 cells (supernatant HBV DNA, real-time qPCR); type: cell-based, Hepatitis B virus; conditions: for EC50: Hepatitis B virus, read-out: EC50 (inhibition of the HBV viral DNA release)
Experimental: (§1) HepG2.2.15.7 cells were seeded at 1 × 10^4 cells per well in a collagen coated 96-well plate (Corning, Corning, NY, USA) and incubated at 37 °C for 24 h before treatment. The tested compound was added to the culture medium at the indicated concentrations. The culture medium was exchanged every 3 days for fresh medium containing the compound. The treated cells and culture supernatants were harvested 9 days post-treatment and were subjected to MTS assay and estimation of HBV DNA, respectively. The culture supernatant was mixed with an equal volume of Sidestep lysis and stabilization buffer (Agilent Technologies, Santa Clara, CA, USA). The viral DNA included in the mixture was estimated by real-time quantitative PCR using the THUNDERBIRD Probe qPCR Mix (TOYOBO, Osaka, Japan). The forward and reverse primers targeting HBV surface region are 5′-[…]-3′ and 5′-[…]-3′, respectively. The fluorogenic probe was 5′-FAM-[…]-TAMRA-3 [40].

[1] = Cytotoxicity in HepG2.2.15.7 cells (MTS assay); type: cell-based; conditions: human, 9 days post-treatment, read-out: CC50 (reduction of cell viability)
Experimental: as §1

HBV core promoter = assay: Cell-based HBV core promoter assay (luciferase reporter, Huh7 GL4.18 CURS_BC_AeUS cells); conditions: Hepatitis B virus, Huh-7, 48 h incubation
Experimental: Huh7 GL4.18 CURS_BC_AeUS cells were seeded at 2 × 10^4 cells per well in a 48-well plate and then treated with 25 µg/mL each extracts 24 h after seeding cells. The treated cells were harvested 48 h post-treatment and then lysed with Cell culture lysis buffer (Promega, Madison, WI, USA). Luciferase activity was measured by using Luciferase assay systems (Promega, Madison, WI, USA). The resulting luminescence was detected as described above.

Tie2 kinase = test system: Tie2 kinase; set-up: method as in PMID 15653332; conditions: cited from earlier work
MCF-7 cells = test system: MCF-7 cells; set-up: method as in PMID 18198840; conditions: MCF-7 cells (a breast cancer cell line); cited from earlier work
[2] = 216 h, HepG2.2.15.7 cells, 9 days post-treatment, supernatant HBV DNA

Compound	Selectivity Index (CC50/EC50) (HBV; HepG2.2.15.7 cells)	EC50 (HBV; HepG2.2.15.7, 216 h) [µM]	CC50 at 9 days [1] [µM]	IC50 (HBV core promoter) [µM]	EC50 (HBV; [2]) [µM]	Effect on Tie2 kinase activity (Tie2 kinase)	Effect on cell cycle (MCF-7 cells)
C=C1[C@H](CO)[C@@H](O)C[C@@H]1n1cnc2c(=O)[nH]c(N)nc21 [Entecavir, reference compound]	>4761	0.021 ± 0.003	> 100				
Oc1cc(Br)c(Br)c(Br)c1Oc1ccc(Br)cc1Br [Compound 2, 3,4,5-tribromo-2-(2,4-dibromophenoxy)-phenol]	12.8		10.3 ± 3.69	4.9	0.8 ± 0.34		
Oc1cc(Br)cc(Br)c1Oc1ccc(Br)cc1Br [Compound 1, 3,5-dibromo-2-(2,4-dibromophenoxy)-phenol]	18.2		4.19 ± 0.12	2.3	0.23 ± 0.07	suppressed activity of Tie2 kinase	induces G1 phase cell cycle arrest
